From patent US10487091B2, “Activators of autophagic flux and phospholipase D and clearance of protein aggregates including tau and treatment of proteinopathies” (THE TRUSTEES OF COLUMBIA UNIVERSITY IN THE CITY OF NEW YORK, priority 2015, dated 2019)
Where two headings read alike, the source gives them in different places.

Legend:
Tau/aggregate = Tau/aggregate inhibition in HEK 293 cells expressing mKate2-tagged Tau; format: cell-based, Human; conditions: for % Inhibition Tau/aggregate: @ 2 μM; for inhibition at 1 µM: Homo sapiens, HEK293
Protocol: (§1) 1) HEK cells with tet-regulated expression of mKate2 tagged Tau were grown in DMEM medium (Dulbecco's Modified Eagle's Medium) containing 0.5 μg/mL doxycycline (Dox)(MP-Bio#198955), after 3-5 days Dox was removed by washing the cells twice with sterile phosphate buffered saline (PBS; Invitrogen#14190-144), cells were left in DMEM without Dox for 72 hours (to further clear remaining Dox in cells).
(§2) The test compounds (along with CytoID™ dye and Hoechst stain) were added to the cells and incubated for 3 hours. Reference compounds were also used in each plate, Rapamycin was used for autophagy induction and chloroquine was used for lysosomal inhibition. After 3 hours test compound was aspirated off and kept. Cells were then washed and read using a fluorescence plate reader. Hoescht, Cyto-ID™ and mKate2 were measured using 3 distinct wavelengths on the plate reader. The Hoescht measurement allowed normalisation of results across wells. After reading, test compound was re-added and the cells are left for a further 21 hours. At the 24 hour time point cells were once again washed and plates read using the fluorescence plate reader.
(§3) Proteostat™ assay was used to detect aggresomes via measurement of p62. Aggresomes are inclusion bodies that form when the ubiquitin-proteasome machinery is overwhelmed with aggregation-prone proteins. Typically, an aggresome forms in response to some cellular stress, such as hyperthermia, viral infection, or exposure to reactive oxygen species. Aggresomes may provide a cytoprotective function by sequestering the toxic, aggregated proteins and may also facilitate their ultimate elimination from cells by autophagy. Following the final plate read described in the Cyto-ID™ assay described above, Proteostat™ detection reagent was added to every well and the plate was incubated for 15 minutes. Following this incubation, the plate was read by fluorescence plate reader at the specified wavelength. After this plate read, the cells were fixed by incubating with warm paraformaldehyde for 8 minutes. The fixed cells were then read by plate reader as before.
Western blot assays were performed to determine protein changes in Tau and p62. Cells were cultured as above and incubated with test compounds for 24 h. Following test compound incubation, the test compound was aspirated off and cells were washed before harvesting. Cells were spun at a low speed and supernatant was aspirated to leave the cell pellet. The cell pellet was then homogenized in buffer, centrifuged at high speed, and the supernatant aspirated and further separated into total fraction and aggregate fraction allowing quantification of soluble and insoluble proteins. Western blots were run on the samples, gels transferred to nitrocellulose and incubated with antibodies for Tau and p62. After incubation with secondary antibodies for detection, the bands of protein were quantified by chemiluminescence.

Autophagy Markers = test: Autophagy markers (Cyto-ID assay) in HEK 293 cells; format: cell-based, Human
Protocol: The dye used in the kit prevents its accumulation within lysosomes, but enables labelling of vacuoles associated with the autophagy pathway using the LC3 biomarker.
as §2
2) Test samples were prepared in warm FluoroBrite™ DMEM and with 10% FBS and 1% NEAA (FB-DMEM). Rapamycin 200 nM (Enzo #BML-A275-0025) was used for autophagy induction and […] chloroquine was used for lysosomal inhibition (bafilomycin or similar compounds were not used as they give a false negative result in the assay). Dimethyl Sulfoxide 1:1000 (DMSO; Fisher #BP231-100) was used as control. Autophagosome marker Cyto ID™ (1:500; Enzo #ENZ-51031-k200) and Hoechst (1:200) was added to these test sample preparations before treating the cells.
7) At 24 hours post reaction all medium was aspirated and the plate was washed 3 times with warm FB-DMEM, and read again for Hoescht (Ex=355 nm Em=446 nm), CytoID™ (Ex=463 nm; Em=534 nm) and mKate2 (Ex=575 nm; Em=630 nm) in 80 μl of FB-DMEM.

phospholipase D (PLD) = test: PLD assay (conversion of phospholipids to phosphatidylethanols in presence of ethanol, LC/MS); format: cell-based, mice; set-up: key: NC—no change; conditions: PLD activation, fold; 24 hours incubation
Protocol: Cells were incubated with test compound for 24 hours. 25 minutes prior to harvest at 24 hours, 3% ethanol solution was added to the wells to catalyze cleavage of the phospholipid. Cells were then placed on ice, washed and harvested. The harvested cells were centrifuged and the supernatant was aspirated and the pellet kept. The pellet was resuspended and chloroform/methanol lipid extraction was performed. The sample was centrifuged and the organic layer was separated, dried under nitrogen and stored at −80° C. On the day of analysis, samples were resuspended and analysed by LC/MS. All phosphatidylethanol species (PEtOH32-40:0-6:16/18:0/1) were combined together and represented as total lipid content (all lipid species).
The assay was run in e18 primary cortical neurons from PLD1 or PLD2 KO mice cultured for 14 days. Alternatively, the assay can be run in the cells described above in the presence of excess PLD1 or PLD2 inhibitor to preclude that particular action from contributing to the effect of the drug.
4) On the day of experiment, cells were washed in warmed HBSS twice before media containing test compound (n=3 per compound per dose), inhibitor (355 nM ML298 or 50 nM VU0150669), or vehicle are added to the wells (1.5 mL in 6 well, 600 μL in 12 well). Plates were incubated for 24 hours at 37° C. with 5% CO2.
5) 25 minutes prior to harvest, a 165 μL of a 3% ethanol solution was added to each well.
PLD activation converts phospholipids to phosphatidylethanols in the presence of ethanol. […] FIPI is a non-competitive inhibitor of PLD activity and was used as a negative control.

[1] = Cytotoxicity LC50 (XTT assay for cell viability); format: cell-based; conditions: human, transfected HEK 293 cells that express mKate2-tagged Tau;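 further: cells carry doxycycline-repressible Tau, induced by withdrawing doxycycline for 72 h before compound exposure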
Protocol: The cells were grown in the presence of the antibiotic doxycycline. When the antibiotic is removed the cells produce Tau (which can be quantified), thus allowing the test compounds' effects on Tau's production to be compared. Doxycycline was removed for 72 hours prior to exposure to the test compounds to promote sufficient Tau production. Cells were subsequently plated into plates for each of the assays described below.

aggregates (Proteostat) = test: Proteostat protein aggregation assay EC50; format: cell-based; conditions: Homo sapiens; 50% reduction of Proteostat levels (fluorescent marker of aggregates)
Source text: as §3
8) Detection solution was prepared by adding 10 μl Proteostat™ detection reagent (ENZ-51023-KP002) and 200 μL of 10× assay buffer into 1790 μL water and mixing well.
9) 20 μL was added per well (each well had 80 μl of Fluorobrite™ media with no FBS) and incubated in the dark for 15 min at room temperature.
10) Fluorescence for Proteostat™ (Ex=550 nm; Em=600 nm) was then read.

mKate2 tagged Tau = test: Tau-mKate2 fluorescence EC50; format: cell-based; conditions: Homo sapiens; 50% reduction of mKate2 fluorescence (tau tag)
Protocol: as §1
as §2, with “After 3 hours test compound was aspirated off and kept.” left out, “The Hoescht measurement allowed normalisation of results across wells.” left out
5) Treatment plate was then washed quickly 3 times with warm FB-DMEM (100 μL/well). […] At this point, the plate was ready for reading. See details in Reading Plate section. Hoescht was read at Excitation wavelength (Ex)=355 nm & Emission wavelength (Em)=446 nm. mKate2 was read at Ex=575 nm & Em=630 nm. Cyto-ID™ was read at Ex=463 nm & Em=534 nm. […]

| Structure (SMILES) | % Inhibition Tau/aggregate (Tau/aggregate) | % Increase Autophagy Markers (Autophagy Markers; @ 2 μM) | PLD (phospholipase D (PLD)) | CC50 ([1]; read-out: Cyto-toxixity LC50) | inhibition at 1 µM (Tau/aggregate) | % Increase Autophagy Markers (Autophagy Markers) | CC50 ([1]; XTT assay, 200 = upper concentration limit tested, read-out: LC50 (the source's name)) | EC50 (aggregates (Proteostat)) | EC50 (mKate2 tagged Tau) |
| --- | --- | --- | --- | --- | --- | --- | --- | --- | --- |
| Cn1nnnc1Sc1ncnc2scnc12 [WHYKD1] | No Effect @ 2 μM | No Effect @ 2 μM | NC | > 100 µM |  |  |  |  |  |
| Oc1ccc(CCNc2ncnc3scnc23)cc1 [WHYKD2] | No Effect @ 2 μM | No Effect @ 2 μM |  | > 100 µM |  |  |  |  |  |
| Cn1nnnc1Sc1ncnc2ccc(Br)cc12 [WHYKD3] | No Effect @ 2 μM | No Effect @ 2 μM | NC | > 100 µM |  |  |  |  |  |
| Cn1nnnc1Sc1ncnc2ccc(-c3cccc4ccccc34)cc12 [WHYKD4] | No Effect @ 2 μM | No Effect @ 2 μM |  | > 100 µM |  |  |  |  |  |
| Cn1nnnc1Sc1ncnc2ccc(F)cc12 [WHYKD5] |  |  | 1.7X | > 100 µM | 35% | 20% |  |  |  |
| Cn1nnnc1Sc1ncnc2ccccc12 [WHYKD6] | No Effect @ 2 μM | No Effect @ 2 μM |  | > 100 µM |  |  |  |  |  |
| Cn1nnnc1Sc1ncnc2ccc(Cl)cc12 [WHYKD7] | No Effect @ 2 μM | No Effect @ 2 μM |  | > 100 µM |  |  |  |  |  |
| Fc1ccc2ncnc(Cl)c2c1 [WHYKD9] | No Effect @ 2 μM | No Effect @ 2 μM |  | > 100 µM |  |  |  |  |  |
| Cn1nnnc1Sc1ccnc2ccccc12 [WHYKD10] | No Effect @ 2 μM | No Effect @ 2 μM |  | > 100 µM |  |  |  |  |  |
| Cn1nnnc1Sc1ccnc2ccc(F)cc12 [WHYKD11] | No Effect @ 2 μM | No Effect @ 2 μM |  | > 100 µM |  |  |  |  |  |
| Fc1ccc2ncnc(SC3CCCCC3)c2c1 [WHYKD12] |  |  | 3.4 X | > 100 µM | 60% | 40% |  |  |  |
| CC1(Sc2ncnc3ccc(F)cc23)CCC2CC1C2(C)C (stereo not drawn) [WHYKD13] | No Effect @ 2 μM | No Effect @ 2 μM |  | > 100 µM |  |  |  |  |  |
| Fc1ccc2ncnc(SC34CC5CC(CC(C5)C3)C4)c2c1 [WHYKD14] | No Effect @ 2 μM | No Effect @ 2 μM |  | > 100 µM |  |  |  |  |  |
| Fc1ccc2ncnc(SC3CCCC3)c2c1 [WHYKD15] |  |  | 3.6 X | > 100 µM | 65% | 40% |  |  |  |
| Fc1ccc2ncnc(SC3CC4CCC3C4)c2c1 (stereo not drawn) [WHYKD16] | No Effect @ 2 μM | No Effect @ 2 μM |  | > 100 µM |  |  |  |  |  |
| COC(=O)CC12CC3CC(C1)CC(Sc1ncnc4ccc(F)cc14)(C3)C2 [WHYKD18] | No Effect @ 2 μM | No Effect @ 2 μM |  | > 100 µM |  |  |  |  |  |
| Fc1ccc2ncnc(SC3CCOCC3)c2c1 [WHYKD19] |  |  | 3.5 X | > 100 µM | 55% | 35% |  |  |  |
| Fc1ccc2ncnc(SC3Cc4ccccc4C3)c2c1 [WHYKD20] | No Effect @ 2 μM | No Effect @ 2 μM |  | > 100 µM |  |  |  |  |  |
| Oc1ccc(CCNc2ncnc3ncsc23)cc1 [WHYKD21] | No Effect @ 2 μM | No Effect @ 2 μM |  | > 100 µM |  |  |  |  |  |
| Oc1ccc(CCNc2ncnc3sccc23)cc1 [WHYKD22] | No Effect @ 2 μM | No Effect @ 2 μM |  | > 100 µM |  |  |  |  |  |
| Oc1ccc(CCNc2ncnc3ccsc23)cc1 [WHYKD23] | No Effect @ 2 μM | No Effect @ 2 μM |  | > 100 µM |  |  |  |  |  |
| O=c1[nH]cnc2ccc(F)cc12 [WHYKD24] |  |  |  | > 100 µM | 30% | 15% |  |  |  |
| Ic1ccc2ncnc(SC3CCCC3)c2c1 [WHYKD30] |  |  |  |  |  |  | > 200 µM | 2510 nM | 1110 nM |
